PubChem BioAssay (NCI)
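GI50 = concentration required for 50% inhibition of growth. TGI: concentration producing complete growth inhibition.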

Columns and labels:
Assay in all cases: inhibition of tumour cell growth, NCI panel, 384-well format
PC-3 prostate = tested on: PC-3 prostate
TK-10 renal = tested on: TK-10 renal
MDA-MB-435 melanoma = tested on: MDA-MB-435 melanoma
HCT-15 colon = tested on: HCT-15 colon
A549 NSCLC = tested on: A549 NSCLC
NCI-H460 NSCLC = tested on: NCI-H460 NSCLC
SK-MEL-5 melanoma = tested on: SK-MEL-5 melanoma
A498 renal = tested on: A498 renal
SR leukemia = tested on: SR leukemia
UO-31 renal = tested on: UO-31 renal
DU-145 prostate = tested on: DU-145 prostate
T-47D breast = tested on: T-47D breast
OVCAR-3 ovarian = tested on: OVCAR-3 ovarian
SF-268 CNS = tested on: SF-268 CNS
K-562 leukemia = tested on: K-562 leukemia
NCI-H226 lung = tested on: NCI-H226 lung
NCI/ADR-RES ovarian = tested on: NCI/ADR-RES ovarian
SK-MEL-28 melanoma = tested on: SK-MEL-28 melanoma
HT29 colon = tested on: HT29 colon
NCI-H23 lung = tested on: NCI-H23 lung
SNB-19 CNS = tested on: SNB-19 CNS
MOLT-4 leukemia = tested on: MOLT-4 leukemia
OVCAR-5 ovarian = tested on: OVCAR-5 ovarian
UACC-257 melanoma = tested on: UACC-257 melanoma
SN12C renal = tested on: SN12C renal
MALME-3M melanoma = tested on: MALME-3M melanoma
M14 melanoma = tested on: M14 melanoma
CCRF-CEM leukemia = tested on: CCRF-CEM leukemia
COLO 205 colon = tested on: COLO 205 colon

Q: What does the source list for C[C@H](CCOc1cccc(CC(=O)O)c1)N(Cc1cccc(C(F)(F)F)c1Cl)CC(c1ccccc1)c1ccccc1?
A: TGI (PC-3 prostate): 13.1 µM; GI50 (TK-10 renal): 6.54 µM; TGI (TK-10 renal): 18.8 µM; GI50 (MDA-MB-435 melanoma): 10.9 µM; TGI (MDA-MB-435 melanoma): 23 µM; GI50 (HCT-15 colon): 3.83 µM; TGI (HCT-15 colon): 13 µM; GI50 (A549 NSCLC): 3.46 µM; TGI (A549 NSCLC): 12 µM; GI50 (NCI-H460 NSCLC): 3.5 µM; TGI (NCI-H460 NSCLC): 11.3 µM; GI50 (SK-MEL-5 melanoma): 3.29 µM; TGI (SK-MEL-5 melanoma): 11.1 µM; GI50 (A498 renal): 4.51 µM; TGI (A498 renal): 15.6 µM; GI50 (SR leukemia): 1.73 µM; TGI (SR leukemia): 3.16 µM; GI50 (UO-31 renal): 5.07 µM; TGI (UO-31 renal): 16.7 µM; GI50 (DU-145 prostate): 5.06 µM; TGI (DU-145 prostate): 16.5 µM; GI50 (T-47D breast): 1.84 µM; TGI (T-47D breast): 10 µM; GI50 (OVCAR-3 ovarian): 2.79 µM; TGI (OVCAR-3 ovarian): 7.28 µM; GI50 (SF-268 CNS): 3.04 µM; TGI (SF-268 CNS): 11 µM; GI50 (K-562 leukemia): 3.55 µM; TGI (K-562 leukemia): 13.4 µM; GI50 (NCI-H226 lung): 4.17 µM; TGI (NCI-H226 lung): 15.7 µM; GI50 (NCI/ADR-RES ovarian): 3.54 µM; TGI (NCI/ADR-RES ovarian): 12.5 µM; GI50 (SK-MEL-28 melanoma): 15.8 µM; TGI (SK-MEL-28 melanoma): 29.3 µM; GI50 (HT29 colon): 4.23 µM; TGI (HT29 colon): 16.2 µM; GI50 (NCI-H23 lung): 2.28 µM; TGI (NCI-H23 lung): 5.31 µM; GI50 (SNB-19 CNS): 4.66 µM; TGI (SNB-19 CNS): 14 µM; GI50 (MOLT-4 leukemia): 1.61 µM; TGI (MOLT-4 leukemia): 3.15 µM; GI50 (OVCAR-5 ovarian): 11.2 µM; TGI (OVCAR-5 ovarian): 23.3 µM; GI50 (UACC-257 melanoma): 3.35 µM; TGI (UACC-257 melanoma): 13 µM; GI50 (SN12C renal): 5.1 µM; TGI (SN12C renal): 16.2 µM; GI50 (MALME-3M melanoma): 15 µM; TGI (MALME-3M melanoma): 28.3 µM; GI50 (M14 melanoma): 5.84 µM; TGI (M14 melanoma): 18.2 µM; GI50 (CCRF-CEM leukemia): 1.72 µM; TGI (CCRF-CEM leukemia): 4.13 µM; GI50 (COLO 205 colon): 8.19 µM; TGI (COLO 205 colon): 20.5 µM
